The nature of this assay: Investigation of aqueous L-ascorbic acid solution. Type of assay: cell-based. The source says:
L-ascorbic acid (vitamin C) is essential for a living body and well fitted to body tissues. Addition of a small amount of L-ascorbic acid increases affinity to cellular tissues.

`O=C1O[C@H]([C@@H](O)CO)C(O)=C1O` [L-ascorbic acid]: the “antimicrobial activity of aqueous solution itself” value was “almost no antimicrobial activity”.

Values taken from US20110236504A1, “VERSATILE DISINFECTANT” (priority 2008, published 2011).
